These results are taken from the NIST ThermoML archive (doi:10.1021/je501162f).

± gives the expanded uncertainty stated by the source.

The conditions of the first data set: 343.15 K; Liquid; Pendant drop shape.
Turning to `CCCCCCCCn1cc[n+](C)c1.O=C([O-])[C@@H]1CCCN1` [1-methyl-3-octyl-1H-imidazol-3-ium L-prolinate], the surface tension liquid-gas came to 27.62 ± 0.63 mN/m.

Staying with this data set, now noted: 353.15 K; 101.33 kPa; Liquid.
`CCCCCCCC[n+]1ccn(C)c1.N[C@@H](CO)C(=O)[O-]` [1-methyl-3-octyl-1H-imidazol-3-ium L-serinate]: the viscosity amounted to 56.2 ± 1.4 mPa·s.
On to `CCCCCCCC[n+]1ccn(C)c1.NC(=O)C[C@H](N)C(=O)[O-]` [1-methyl-3-octylimidazolium L-asparaginate], for which the viscosity was 107.1 ± 4 mPa·s.
Same read-out and setting: under `CCCCCCCC[n+]1ccn(C)c1.C[C@H](N)C(=O)[O-]` [1-methyl-3-octylimidazolium L-alaninate] stands 29.1 ± 0.7 mPa·s; under `CCCCCCCCn1cc[n+](C)c1.NCC(=O)[O-]` [1-methyl-3-octylimidazolium glycinate], 24.4 ± 0.6 mPa·s.
On to `CCCCCCCCn1cc[n+](C)c1.O=C([O-])[C@@H]1CCCN1` [1-methyl-3-octyl-1H-imidazol-3-ium L-prolinate], for which the viscosity turned out to be 47.2 ± 1.2 mPa·s.

The data set is the same for the next values; noted with them: 353.15 K; 101.33 kPa; Liquid; Vibrating tube method.
With `CCCCCCCC[n+]1ccn(C)c1.N[C@@H](CO)C(=O)[O-]` [1-methyl-3-octyl-1H-imidazol-3-ium L-serinate], the mass density came to 1036.9 ± 2.2 kg/m3.
With `CCCCCCCC[n+]1ccn(C)c1.NC(=O)C[C@H](N)C(=O)[O-]` [1-methyl-3-octylimidazolium L-asparaginate], the mass density was 1039 ± 2.2 kg/m3.
As to `CCCCCCCC[n+]1ccn(C)c1.C[C@H](N)C(=O)[O-]` [1-methyl-3-octylimidazolium L-alaninate], the mass density is recorded as 966.3 ± 2.1 kg/m3.
On to `CCCCCCCCn1cc[n+](C)c1.NCC(=O)[O-]` [1-methyl-3-octylimidazolium glycinate], for which the mass density turned out to be 1004.4 ± 2.1 kg/m3.
Regarding `CCCCCCCCn1cc[n+](C)c1.O=C([O-])[C@@H]1CCCN1` [1-methyl-3-octyl-1H-imidazol-3-ium L-prolinate], the mass density is recorded as 1026.4 ± 2.2 kg/m3.

The data set is the same for the next values; noted with them: 353.15 K; Liquid; Pendant drop shape.
On to `CCCCCCCC[n+]1ccn(C)c1.N[C@@H](CO)C(=O)[O-]` [1-methyl-3-octyl-1H-imidazol-3-ium L-serinate], for which the surface tension liquid-gas is 29.23 ± 0.64 mN/m.
Consider `CCCCCCCC[n+]1ccn(C)c1.NC(=O)C[C@H](N)C(=O)[O-]` [1-methyl-3-octylimidazolium L-asparaginate], for which the surface tension liquid-gas amounted to 30.19 ± 0.65 mN/m.
For `CCCCCCCC[n+]1ccn(C)c1.C[C@H](N)C(=O)[O-]` [1-methyl-3-octylimidazolium L-alaninate], the surface tension liquid-gas was found to be 24.99 ± 0.61 mN/m.
Take `CCCCCCCCn1cc[n+](C)c1.NCC(=O)[O-]` [1-methyl-3-octylimidazolium glycinate]: the surface tension liquid-gas is recorded as 27.42 ± 0.63 mN/m.
Take `CCCCCCCCn1cc[n+](C)c1.O=C([O-])[C@@H]1CCCN1` [1-methyl-3-octyl-1H-imidazol-3-ium L-prolinate]: the surface tension liquid-gas worked out at 27.14 ± 0.63 mN/m.

Still in this data set, the particulars now being: 363.15 K; 101.33 kPa; Liquid.
Regarding `CCCCCCCC[n+]1ccn(C)c1.N[C@@H](CO)C(=O)[O-]` [1-methyl-3-octyl-1H-imidazol-3-ium L-serinate], the viscosity is recorded as 37.5 ± 1 mPa·s.
In the case of `CCCCCCCC[n+]1ccn(C)c1.NC(=O)C[C@H](N)C(=O)[O-]` [1-methyl-3-octylimidazolium L-asparaginate], the viscosity stood at 66.6 ± 1.8 mPa·s.
Turning to `CCCCCCCC[n+]1ccn(C)c1.C[C@H](N)C(=O)[O-]` [1-methyl-3-octylimidazolium L-alaninate], the viscosity was 20.7 ± 0.5 mPa·s.
Consider `CCCCCCCCn1cc[n+](C)c1.NCC(=O)[O-]` [1-methyl-3-octylimidazolium glycinate], for which the viscosity was 17.7 ± 0.4 mPa·s.
On to `CCCCCCCCn1cc[n+](C)c1.O=C([O-])[C@@H]1CCCN1` [1-methyl-3-octyl-1H-imidazol-3-ium L-prolinate], for which the viscosity is listed as 31.9 ± 0.8 mPa·s.

The same data set, now with this note: 363.15 K; 101.33 kPa; Liquid; Vibrating tube method.
On to `CCCCCCCC[n+]1ccn(C)c1.N[C@@H](CO)C(=O)[O-]` [1-methyl-3-octyl-1H-imidazol-3-ium L-serinate], for which the mass density is listed as 1030.5 ± 2.2 kg/m3.
Regarding `CCCCCCCC[n+]1ccn(C)c1.NC(=O)C[C@H](N)C(=O)[O-]` [1-methyl-3-octylimidazolium L-asparaginate], the mass density is on record as 1034.4 ± 2.2 kg/m3.
With `CCCCCCCC[n+]1ccn(C)c1.C[C@H](N)C(=O)[O-]` [1-methyl-3-octylimidazolium L-alaninate], the mass density worked out at 962.6 ± 2.1 kg/m3.
For the compound `CCCCCCCCn1cc[n+](C)c1.NCC(=O)[O-]` [1-methyl-3-octylimidazolium glycinate], the mass density came to 998.6 ± 2.1 kg/m3.
`CCCCCCCCn1cc[n+](C)c1.O=C([O-])[C@@H]1CCCN1` [1-methyl-3-octyl-1H-imidazol-3-ium L-prolinate]: the mass density was determined as 1020.1 ± 2.2 kg/m3.

Still in this data set, the particulars now being: 373.15 K; 101.33 kPa; Liquid.
Regarding `CCCCCCCC[n+]1ccn(C)c1.N[C@@H](CO)C(=O)[O-]` [1-methyl-3-octyl-1H-imidazol-3-ium L-serinate], the viscosity turned out to be 26.2 ± 0.7 mPa·s.
The same measure, in the same setting: the result for `CCCCCCCC[n+]1ccn(C)c1.NC(=O)C[C@H](N)C(=O)[O-]` [1-methyl-3-octylimidazolium L-asparaginate] reads 43.5 ± 1.1 mPa·s; that for `CCCCCCCC[n+]1ccn(C)c1.C[C@H](N)C(=O)[O-]` [1-methyl-3-octylimidazolium L-alaninate], 15.2 ± 0.4 mPa·s.
With `CCCCCCCCn1cc[n+](C)c1.NCC(=O)[O-]` [1-methyl-3-octylimidazolium glycinate], the viscosity was found to be 13.3 ± 0.3 mPa·s.
As for `CCCCCCCCn1cc[n+](C)c1.O=C([O-])[C@@H]1CCCN1` [1-methyl-3-octyl-1H-imidazol-3-ium L-prolinate], the viscosity was 22.4 ± 0.6 mPa·s.

The same data set, now with this note: 373.15 K; 101.33 kPa; Liquid; Vibrating tube method.
As for `CCCCCCCC[n+]1ccn(C)c1.N[C@@H](CO)C(=O)[O-]` [1-methyl-3-octyl-1H-imidazol-3-ium L-serinate], the mass density was determined as 1024.2 ± 2.2 kg/m3.
In the case of `CCCCCCCC[n+]1ccn(C)c1.NC(=O)C[C@H](N)C(=O)[O-]` [1-methyl-3-octylimidazolium L-asparaginate], the mass density is 1030.1 ± 2.2 kg/m3.
Still for that read-out and setting: under `CCCCCCCC[n+]1ccn(C)c1.C[C@H](N)C(=O)[O-]` [1-methyl-3-octylimidazolium L-alaninate] stands 959.7 ± 2.1 kg/m3.
Same read-out and setting: the result for `CCCCCCCCn1cc[n+](C)c1.NCC(=O)[O-]` [1-methyl-3-octylimidazolium glycinate] reads 992.8 ± 2.1 kg/m3.
Still for that read-out and setting: under `CCCCCCCCn1cc[n+](C)c1.O=C([O-])[C@@H]1CCCN1` [1-methyl-3-octyl-1H-imidazol-3-ium L-prolinate] stands 1013.9 ± 2.2 kg/m3.

Still in this data set, the particulars now being: Glass; DTA.
Regarding `CCCCCCCC[n+]1ccn(C)c1.N[C@@H](CO)C(=O)[O-]` [1-methyl-3-octyl-1H-imidazol-3-ium L-serinate], the Glass transition temperature is -54 ± 1 °C.
Same read-out and setting: under `CCCCCCCC[n+]1ccn(C)c1.NC(=O)C[C@H](N)C(=O)[O-]` [1-methyl-3-octylimidazolium L-asparaginate] stands -44 ± 1 °C; under `CCCCCCCC[n+]1ccn(C)c1.C[C@H](N)C(=O)[O-]` [1-methyl-3-octylimidazolium L-alaninate], -66 ± 1 °C.
As for `CCCCCCCCn1cc[n+](C)c1.NCC(=O)[O-]` [1-methyl-3-octylimidazolium glycinate], the Glass transition temperature is -69 ± 1 °C.
`CCCCCCCCn1cc[n+](C)c1.O=C([O-])[C@@H]1CCCN1` [1-methyl-3-octyl-1H-imidazol-3-ium L-prolinate]: the Glass transition temperature was -62 ± 1 °C.

Broadly, the surface tension liquid-gas is the work needed to enlarge the surface of a liquid by unit area. In general, viscosity refers to the internal friction of a fluid under shear. In general, mass density refers to mass per unit of volume.
